Biological target: T1, human TLR7 (Homo sapiens, UniProt Q9NYK1)
T1 construct: host or cells: HEK-Blue cells
T1 sequence (Q9NYK1 27-1049): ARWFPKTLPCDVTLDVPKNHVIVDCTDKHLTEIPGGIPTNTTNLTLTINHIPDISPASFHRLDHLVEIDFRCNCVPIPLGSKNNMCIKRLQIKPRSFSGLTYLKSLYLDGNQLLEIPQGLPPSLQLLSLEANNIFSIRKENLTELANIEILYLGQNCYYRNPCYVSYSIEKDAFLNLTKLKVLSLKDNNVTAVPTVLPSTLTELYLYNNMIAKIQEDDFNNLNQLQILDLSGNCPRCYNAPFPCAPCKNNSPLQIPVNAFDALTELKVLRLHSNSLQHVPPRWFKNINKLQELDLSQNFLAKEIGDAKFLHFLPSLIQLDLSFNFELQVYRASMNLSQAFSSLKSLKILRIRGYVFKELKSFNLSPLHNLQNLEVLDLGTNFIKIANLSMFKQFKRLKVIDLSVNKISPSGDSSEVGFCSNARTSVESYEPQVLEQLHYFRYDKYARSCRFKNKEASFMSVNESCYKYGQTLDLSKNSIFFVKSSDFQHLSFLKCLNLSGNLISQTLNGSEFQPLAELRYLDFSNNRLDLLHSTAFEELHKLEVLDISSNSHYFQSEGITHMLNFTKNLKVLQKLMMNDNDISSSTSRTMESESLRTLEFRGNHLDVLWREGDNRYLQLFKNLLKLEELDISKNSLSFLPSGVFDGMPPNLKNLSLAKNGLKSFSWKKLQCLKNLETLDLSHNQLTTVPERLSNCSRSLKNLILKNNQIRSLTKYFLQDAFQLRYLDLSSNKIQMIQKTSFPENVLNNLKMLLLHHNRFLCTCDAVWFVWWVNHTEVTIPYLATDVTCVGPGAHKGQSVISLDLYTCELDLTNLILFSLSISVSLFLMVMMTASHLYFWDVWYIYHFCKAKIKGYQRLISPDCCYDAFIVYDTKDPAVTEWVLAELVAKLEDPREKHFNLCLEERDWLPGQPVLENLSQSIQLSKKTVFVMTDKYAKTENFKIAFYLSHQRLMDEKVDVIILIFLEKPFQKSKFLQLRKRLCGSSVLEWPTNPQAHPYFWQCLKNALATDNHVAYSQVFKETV
Experiment: TLR7 inhibition reporter assay (HEK-Blue cells, SEAP reporter, gardiquimod stimulation)
Format: cell-based
Details: HEK-Blue cells overexpressing human TLR7, gardiquimod 7.5 μM
Method in brief: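 22 h, 37° C, 5% CO2 incubation; compounds 0.05 nM-50 μM final; TLR7 cells 15000/well, TLR8 20,000/well. Readout: SEAP via HEK-Blue Detection medium. % inhibition = signal reduction versus agonist + DMSO wells, referenced to known inhibitor.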

Row | Structure (SMILES) | IC50 [µM]
1 | COc1ccc(-c2[nH]c3cc(C)c(C4CCN(C5CCN(C(C)C)CC5)CC4)cc3c2C(C)C)cc1OC [Example 206, 2-(3,4-dimethoxyphenyl)-3-isopropyl-5-(1′-isopropyl-[1,4′-bipiperidin]-4-yl)-6-methyl-1H-indole di trifluoroacetic acid] | 3.57
2 | CCc1c(-c2ccc(OC)c(OC)c2)[nH]c2ccc(C3CCN(C4CCN(Cc5cc6ccccc6[nH]5)CC4)CC3)cc12 [Example 128, 5-(1′-((1H-indol-2-yl)methyl)-[1,4′-bipiperidin]-4-yl)-2-(3,4-dimethoxyphenyl)-3-ethyl-1H-indole] | 3.28
3 | CCc1c(-c2ccc(OC)c(OC)c2)[nH]c2ccc(C3CCN(C4CCN(Cc5ccc(-c6ccccc6)o5)CC4)CC3)cc12 [Example 143, 2-(3,4-dimethoxyphenyl)-3-ethyl-5-(1′-((5-phenylfuran-2-yl)methyl)-[1,4′-bipiperidin]-4-yl)-1H-indole] | 1.26
4 | CCc1c(-c2ccc(OC)c(OC)c2)[nH]c2cc(OC)c(C3CCN(C4CCN(C(C)C)CC4)CC3)cc12 [Example 192, 2-(3,4-dimethoxyphenyl)-3-ethyl-5-(1′-isopropyl-[1,4′-bipiperidin]-4-yl)-6-methoxy-1H-indole] | 0.171
5 | CCc1c(-c2ccc(OC)c(OC)c2)[nH]c2ccc(C3CCN(C4CCN(Cc5cc(C)n[nH]5)CC4)CC3)cc12 [Example 131, 2-(3,4-dimethoxyphenyl)-3-ethyl-5-(1′-((3-methyl-1H-pyrazol-5-yl)methyl)-[1,4′-bipiperidin]-4-yl)-1H-indole] | 0.371
6 | COc1ccc(-c2[nH]c3ccc(C4CCN(C(=O)CNCC#N)CC4)cc3c2C(C)C)cc1OC [Example 214, 2-((2-(4-(2-(3,4-dimethoxyphenyl)-3-isopropyl-1H-indol-5-yl)piperidin-1-yl)-2-oxoethyl)amino) acetonitrile] | 0.021
7 | CCc1c(-c2ccc(OC)c(OC)c2)[nH]c2ccc(C3CCN(C4CCN(Cc5ccc(-c6ccccc6)s5)CC4)CC3)cc12 [Example 141, 2-(3,4-dimethoxyphenyl)-3-ethyl-5-(1′-((5-phenylthiophen-2-yl)methyl)-[1,4′-bipiperidin]-4-yl)-1H-indole] | 3.74
8 | CCOC(=O)c1c(C)[nH]c(CN2CCC(N3CCC(c4ccc5[nH]c(-c6ccc(OC)c(OC)c6)c(CC)c5c4)CC3)CC2)c1C [Example 127, ethyl 5-((4-(2-(3,4-dimethoxyphenyl)-3-ethyl-1H-indol-5-yl)-[1,4′-bipiperidin]-1′-yl)methyl)-2,4-dimethyl-1H-pyrrole-3-carboxylate] | 1.62
9 | CCc1c(-c2ccc(OC)c(OC)c2)[nH]c2ccc(C3CCNCC3)cc12 [Example 122, 2-(3,4-dimethoxyphenyl)-3-ethyl-5-(piperidin-4-yl)-1H-indole] | 0.057
10 | CCc1c(-c2ccc(OC)c(OC)c2)[nH]c2ccc(C3CCN(C4CCN(C(C)C)CC4)CC3)cc12 [Example 151, 2-(3,4-dimethoxyphenyl)-3-ethyl-5-(1′-isopropyl-[1,4′-bipiperidin]-4-yl)-1H-indole] | 0.507
11 | CCc1c(-c2ccc(OC)c(OC)c2)[nH]c2ccc(C3CCN(C4CCN(CC(C)C)CC4)CC3)cc12 [Example 123, 2-(3,4-dimethoxyphenyl)-3-ethyl-5-(1′-isobutyl-[1,4′-bipiperidin]-4-yl)-1H-indole-di-trifluoroacetic acid] | 0.398
12 | CCc1c(-c2ccc(OC)c(OC)c2)[nH]c2ccc(C3CCN(C4CCN(Cc5cnc(C)[nH]5)CC4)CC3)cc12 [Example 153, 2-(3,4-dimethoxyphenyl)-3-ethyl-5-(1′-((2-methyl-1H-imidazol-5-yl)methyl)-[1,4′-bipiperidin]-4-yl)-1H-indole] | 1.47
13 | CNCCN1CCC(c2cc3c(C(C)C)c(-c4ccc(OC)c(OC)c4)[nH]c3cc2C)CC1 [Example 207, 2-(4-(2-(3,4-dimethoxyphenyl)-3-isopropyl-6-methyl-1H-indol-5-yl)piperidin-1-yl)-N-methylethan-1-amine] | 7.3
14 | CCCc1c(-c2ccc(OC)c(OC)c2)[nH]c2ccc(C3CCN(C4CCN(CC(C)C)CC4)CC3)cc12 [Example 121, 2-(3,4-dimethoxyphenyl)-5-(1′-isobutyl-[1,4′-bipiperidin]-4-yl)-3-propyl-1H-indole-di-trifluoroacetic acid] | 0.661
15 | COc1ccc(-c2[nH]c3cc(C)c(C4CCNCC4)cc3c2C(C)C)cc1OC [Example 205, 2-(3,4-dimethoxyphenyl)-3-isopropyl-6-methyl-5-(piperidin-4-yl)-1H-indole] | 2.37
16 | COc1ccc(-c2[nH]c3ccc(C4CCN(C(=O)CNC56CC7CC(CC(O)(C7)C5)C6)CC4)cc3c2C(C)C)cc1OC [Example 218, 1-(4-(2-(3,4-dimethoxyphenyl)-3-isopropyl-1H-indol-5-yl)piperidin-1-yl)-2-(((1r,3s,5R,7S)-3-hydroxyadamantan-1-yl)amino)ethan-1-one] | 0.044
17 | CCc1c(-c2ccc(OC)c(OC)c2)[nH]c2ccc(C3CCN(C(C)=O)CC3)cc12 [Example 185, 1-(4-(2-(3,4-dimethoxyphenyl)-3-ethyl-1H-indol-5-yl)piperidin-1-yl)ethan-1-one] | 0.273
18 | CCc1c(-c2ccc(OC)c(OC)c2)[nH]c2ccc(C3CCN(C(=O)c4ccncc4)CC3)cc12 [Example 183, (4-(2-(3,4-dimethoxyphenyl)-3-ethyl-1H-indol-5-yl)piperidin-1-yl)(pyridin-4-yl) methanone] | 0.533
19 | CCc1c(-c2ccc(OC)c(OC)c2)[nH]c2ccc(C3CCN(C4CCN(Cc5sccc5C)CC4)CC3)cc12 [Example 139, 2-(3,4-dimethoxyphenyl)-3-ethyl-5-(1′-((3-methylthiophen-2-yl)methyl)-[1,4′-bipiperidin]-4-yl)-1H-indole] | 0.579
20 | CCc1c(-c2ccc(OC)c(OC)c2)[nH]c2ccc(C3CCN(CC(C)C(F)(F)F)CC3)cc12 (stereo not drawn) [Example 180, 2-(3,4-dimethoxyphenyl)-3-ethyl-5-(1-(3,3,3-trifluoro-2-methylpropyl)piperidin-4-yl)-1H-indole] | ≥ 50
21 | COc1ccc(-c2[nH]c3ccc(C4CCN(C(=O)CN5CCC(N6CCCCC6)CC5)CC4)cc3c2C(C)C)cc1OC [Example 211, 2-([1,4′-bipiperidin]-1′-yl)-1-(4-(2-(3,4-dimethoxyphenyl)-3-isopropyl-1H-indol-5-yl)piperidin-1-yl)ethan-1-one] | 0.014
22 | CCN(CC)C(=O)CCN(C)CC(=O)N1CCC(c2ccc3[nH]c(-c4ccc(OC)c(OC)c4)c(C(C)C)c3c2)CC1 [Example 204, 3-((2-(4-(2-(3,4-dimethoxyphenyl)-3-isopropyl-1H-indol-5-yl)piperidin-1-yl)-2-oxoethyl)(methyl)amino)-N,N-diethylpropanamide] | 0.16
23 | CCc1c(-c2ccc(OC)c(OC)c2)[nH]c2ccc(C3CCN(C4CCN(Cc5ccn(C)n5)CC4)CC3)cc12 [Example 133, 2-(3,4-dimethoxyphenyl)-3-ethyl-5-(1′-((1-methyl-1H-pyrazol-3-yl)methyl)-[1,4′-bipiperidin]-4-yl)-1H-indole] | 0.208
24 | COc1ccc(-c2[nH]c3ccc(C4CCN(C5CCN(C(C)C)CC5)CC4)cc3c2C(C)C)cc1OC [Example 201, 2-(3,4-dimethoxyphenyl)-3-isopropyl-5-(1′-isopropyl-[1,4′-bipiperidin]-4-yl)-1H-indole] | 0.119
25 | CCc1c(-c2ccc(OC)c(OC)c2)[nH]c2ccc(C3CCN(C(=O)CN4CCCC(C(=O)N(CC)CC)C4)CC3)cc12 (stereo not drawn) [Example 168, 1-(2-(4-(2-(3,4-dimethoxyphenyl)-3-ethyl-1H-indol-5-yl)piperidin-1-yl)-2-oxoethyl)-N,N-diethylpiperidine-3-carboxamide] | 0.142
26 | CCc1c(-c2ccc(OC)c(OC)c2)[nH]c2ccc(C3CCN(C(=O)C4CCCNC4)CC3)cc12 (stereo not drawn) [Example 184, (4-(2-(3,4-dimethoxyphenyl)-3-ethyl-1H-indol-5-yl)piperidin-1-yl)(piperidin-3-yl)methanone] | 0.191
27 | CCc1c(-c2ccc(OC)c(OC)c2)[nH]c2ccc(C3CCN(C4CCN(Cc5cc6ccccc6n5C)CC4)CC3)cc12 [Example 137, 2-(3,4-dimethoxyphenyl)-3-ethyl-5-(1′-((1-methyl-1H-indol-2-yl)methyl)-[1,4′-bipiperidin]-4-yl)-1H-indole] | 4.69
